Source: ChEMBL document CHEMBL5154787 (J Med Chem, 2022)
Each block holds one compound with its values, some of them ahead of it.

Tests used:
Rattus norvegicus [1] = experiment: Analgesic activity in STZ induced in diabetic peripheral neuropathic mechanical allodynia in Sprague-Dawley rat assessed as reduction in pain response at 3 mg/kg, po measured up to 24 hrs by Hargreaves test relative to control; type: functional; set-up: scale not given: the % may be the effect or the level left
[2] = Inhibition of TAK/TAB (unknown origin)
[3] = Ratio of drug concentration in spinal cord to plasma in CCI induced thermal hyperalgesia in Sprague-Dawley rat at 3 mg/kg, po measured at 5.5 hrs post dose; type: ADME, organism-based
Rattus norvegicus [4] = experiment: Analgesic activity in STZ induced in diabetic peripheral neuropathic path mechanical allodynia in Sprague-Dawley rat assessed as reversal in mechanical allodynia by measuring inhibition of pain response at 1 mg/kg, po measured up to 5.5 hrs by Hargreaves test relative to control; type: functional; set-up: scale not given: the % may be the effect or the level left
[5] = Drug concentration in CCI induced thermal hyperalgesia in Sprague-Dawley rat spinal cord at 1 mg/kg, po measured after 5.5 hrs; type: ADME, organism-based; settings: read-out: Ct

Compound: COC(=O)Nc1cc(-c2ccc(OC[C@@](C)(N)CC(C)C)c(C)n2)ccn1
Activity (Rattus norvegicus [1]): 60%

IC50 [2]: 180 nM
Compound: COC(=O)Nc1cc(-c2cnc(OC[C@@](C)(N)CC(C)C)c(C)c2)ccn1

Kp at 5.5 h [3]: 13 | concentration at 5.5 h [5]: 217 nM
Compound: CC(C)C[C@](C)(N)COc1cnc(-c2ccnc(C(F)F)c2)cc1C(F)F
Activity (Rattus norvegicus [4]): 50%
